One data set relates to HepaRG cells. Nature of the data set: AdipoRed triglyceride accumulation assay. It is filed as cell-based, human. Particulars: for Relative triglyceride accumulation: related to medium control. On the procedure: Different elements of the liver steatosis AOP were evaluated in this study. Transcriptomics was employed as a tool to investigate the expression of liver steatosis-related genes that occur either as MIE (genes related to NR activation) or molecular and cellular KEs. In addition to gene expression, lipid accumulation in HepaRG cells was conducted to cover molecular KEs. Considering that upstream MIEs occur earlier than subsequent downstream KEs (Alarcan et al. [2021]), we applied different time points (24 h for transcriptomics and 72 h for lipid accumulation) to reflect the temporal relationships between biological events.
HepaRG cells were treated in 96-well plates for 72 h with eight different concentrations of the above-mentioned test compounds, with the highest concentration of each being the highest non-cytotoxic concentration. The synthetic LXR and FXR agonist, T0901317, was used as a positive control at a concentration of 10 µM. After the 72-h incubation, cells were washed with 200 µL phosphate-buffered saline (PBS), and then 200 µL PBS containing 5 µg/mL Hoechst 33,342 (Thermo Fisher Scientific; Waltham, Massachusetts, USA) was added to each well. Thereafter, 5 µL of the AdipoRed reagent was added to each well, and the plates were incubated at 37 °C for 10 min. Subsequently, the fluorescence of AdipoRed was measured at λexc = 485 nm/λemi = 572 nm, and Hoechst 33,342 was measured at λexc = 350 nm/λemi = 451 nm on the Infinite M200 PRO plate reader (Tecan; Männedorf, Switzerland). AdipoRed signals were normalized to Hoechst 33,342 signals to compensate for variations in cell number. Relative triglyceride levels were referred to untreated cells. Each concentration was measured in three technical replicates. Three independent biological replicates were performed (n = 3) and means as well as SD were calculated.
(§1) A linear mixed-effects ANOVA (α = 0.05) described by Pinheiro and Bates ([2000]) followed by a post-hoc Dunnett test for multiple comparisons of treatment groups versus the control was used for statistical analysis of data from cytotoxicity assay, AdipoRed assay, CYP450 inhibition assay as well as mixture effects. R studio (ver. 4.4.1) was used to determine the effective concentration at relative triglyceride induction fold of 1.5 for each test compound.

For the next data set, the target named is T1, CYP2C19 (Homo sapiens, UniProt P33261).
T1 construct: purchased Promega
Description: P450-Glo screening system, CYP inhibition. The data set is classed as biochemical. Particulars: recombinant human CYP, luciferin-H EGE.
Excerpt: (§2) The P450-Glo™ screening systems (Promega; Madison, Wisconsin, USA) were used in this study to explore the inhibitory properties of MDP on the major CYP isoforms involved in xenobiotic metabolism (CYP1A2, CYP2C9, CYP2C19, CYP2D6, and CYP3A4). HepaRG cells were not utilized in this assay to avoid potential cross reactivity since all CYP enzymes are expressed in this cell line. Therefore, this inhibition study relied on recombinant human CYP enzymes integrated in membrane preparation. The principle of the assay is based on the conversion of a luminogenic substrate (100 µM luciferin-ME for CYP1A2, 100 µM luciferin-H for CYP2C9, 50 µM luciferin-H EGE for CYP2C19, 30 µM luciferin-ME EGE for CYP2D6, and 100 µM luciferin-PPXE for CYP3A4) to luciferin by the respective enzyme. The assay was conducted according to the instructions of the supplier. Briefly, eight non-cytotoxic concentrations of MDP or a CYP selective inhibitor were preincubated for 10 min at 37 °C together with the luminogenic substrate, potassium phosphate buffer, and luciferin-free water, and the test compounds were added to white 96-well Costar® plates. After the preincubation, 25 µL of NADPH regeneration system (2.6 mM NADP + , 6.6 mM glucose-6-phosphate, 6.6 mM MgCl2, and 0.8 U/mL glucose-6-phosphate dehydrogenase) was added to each well to initiate CYP reactions. The plates were briefly shaken and taped before they were incubated at 37 °C for 10–30 min depending on the CYP enzyme under investigation. Luminescence of the luciferin product was initiated by adding 50 µL of the luciferin detection reagent. Subsequently, the plates were briefly shaken and then incubated for 20 min at room temperature in order to stabilize the luminescent signal. The luminescence was measured on the Infinite M200 PRO plate reader (Tecan; Männedorf, Switzerland). The measurements were corrected by subtracting the minus P450 control signals from each measurement and represented as changes in luminescence signals (ΔRLU). The ΔRLU values of MDP were compared with the ΔRLU values of the untreated samples and represented as relative changes in luminescence in relation to the control (%). Three independent experiments with three technical replicates were conducted (n = 3). Means and standard deviations for each treatment were calculated before calculating the IC50 values of MDP for each CYP enzyme.
as §1

For a further data set, the target named is T2, CYP1A2 (Homo sapiens, UniProt P05177).
T2 construct: purchased Promega
T2 sequence (P05177 1-516): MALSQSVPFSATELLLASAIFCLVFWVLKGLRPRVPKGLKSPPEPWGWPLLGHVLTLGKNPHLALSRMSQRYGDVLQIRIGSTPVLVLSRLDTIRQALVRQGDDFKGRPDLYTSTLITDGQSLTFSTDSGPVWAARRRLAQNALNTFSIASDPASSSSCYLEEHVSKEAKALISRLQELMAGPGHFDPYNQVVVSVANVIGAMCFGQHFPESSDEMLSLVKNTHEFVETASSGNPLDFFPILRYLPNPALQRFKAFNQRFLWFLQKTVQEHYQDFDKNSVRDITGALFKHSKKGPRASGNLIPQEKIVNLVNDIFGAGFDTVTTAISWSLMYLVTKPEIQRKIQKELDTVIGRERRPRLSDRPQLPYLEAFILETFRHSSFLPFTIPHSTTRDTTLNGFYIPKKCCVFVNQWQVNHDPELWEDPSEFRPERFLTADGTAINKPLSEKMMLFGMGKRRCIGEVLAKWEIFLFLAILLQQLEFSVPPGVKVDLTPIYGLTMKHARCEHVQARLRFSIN
Nature of the data set: P450-Glo screening system, CYP inhibition. It is filed as biochemical. Particulars: recombinant human CYP, luciferin-ME.
Excerpt: as §2, §1

For a further data set, the target named is T3, CYP3A4 (Homo sapiens, UniProt P08684).
T3 construct: purchased Promega
Nature of the data set: P450-Glo screening system, CYP inhibition. The data set is classed as biochemical. Particulars: recombinant human CYP, luciferin-PPXE.
Excerpt: as §2, §1

Another data set deals with T4, CYP2C9 (Homo sapiens, UniProt P11712).
T4 construct: purchased Promega
Nature of the data set: P450-Glo screening system, CYP inhibition. Particulars: recombinant human CYP, luciferin-H. It is filed as biochemical.
Excerpt: as §2, §1

For another data set, the target named is T5, CYP2D6 (Homo sapiens, UniProt P10635).
T5 construct: purchased Promega
Description: P450-Glo screening system, CYP inhibition. Particulars: recombinant human CYP, luciferin-ME EGE. It is filed as biochemical.
Excerpt: as §2, §1

One compound from publication PMC12367838, “Relevance of kinetic interactions and co-formulants for plant protection product liver toxicity in vitro” (Archives of Toxicology, 2025) can be followed below.

T5 sequence (P10635 whole entry): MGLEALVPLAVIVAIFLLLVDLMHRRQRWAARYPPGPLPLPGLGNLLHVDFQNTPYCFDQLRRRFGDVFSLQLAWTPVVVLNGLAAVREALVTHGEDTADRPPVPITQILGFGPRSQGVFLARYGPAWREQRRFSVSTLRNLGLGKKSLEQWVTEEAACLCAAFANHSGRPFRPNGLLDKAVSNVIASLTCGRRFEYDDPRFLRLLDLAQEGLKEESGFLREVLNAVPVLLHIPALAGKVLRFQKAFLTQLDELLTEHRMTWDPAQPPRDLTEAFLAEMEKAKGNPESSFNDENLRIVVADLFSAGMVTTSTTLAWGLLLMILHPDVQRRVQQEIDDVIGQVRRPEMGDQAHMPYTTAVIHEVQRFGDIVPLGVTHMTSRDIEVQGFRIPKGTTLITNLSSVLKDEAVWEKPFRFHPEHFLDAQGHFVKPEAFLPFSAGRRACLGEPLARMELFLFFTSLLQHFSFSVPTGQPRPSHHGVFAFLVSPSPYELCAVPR
T3 sequence (P08684 whole entry): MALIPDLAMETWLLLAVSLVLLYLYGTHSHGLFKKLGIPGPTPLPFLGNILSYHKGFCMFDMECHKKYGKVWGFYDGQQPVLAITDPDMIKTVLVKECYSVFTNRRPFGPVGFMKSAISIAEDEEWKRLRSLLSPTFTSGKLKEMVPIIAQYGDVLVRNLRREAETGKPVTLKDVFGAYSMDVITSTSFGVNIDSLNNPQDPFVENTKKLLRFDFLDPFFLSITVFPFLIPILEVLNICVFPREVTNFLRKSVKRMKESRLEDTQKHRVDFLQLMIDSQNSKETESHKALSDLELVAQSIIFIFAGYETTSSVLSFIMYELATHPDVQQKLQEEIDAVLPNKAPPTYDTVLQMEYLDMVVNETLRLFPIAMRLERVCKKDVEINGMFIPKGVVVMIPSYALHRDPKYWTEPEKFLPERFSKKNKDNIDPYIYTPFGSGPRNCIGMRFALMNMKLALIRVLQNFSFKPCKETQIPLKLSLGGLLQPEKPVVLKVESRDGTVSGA
T4 sequence (P11712 whole entry): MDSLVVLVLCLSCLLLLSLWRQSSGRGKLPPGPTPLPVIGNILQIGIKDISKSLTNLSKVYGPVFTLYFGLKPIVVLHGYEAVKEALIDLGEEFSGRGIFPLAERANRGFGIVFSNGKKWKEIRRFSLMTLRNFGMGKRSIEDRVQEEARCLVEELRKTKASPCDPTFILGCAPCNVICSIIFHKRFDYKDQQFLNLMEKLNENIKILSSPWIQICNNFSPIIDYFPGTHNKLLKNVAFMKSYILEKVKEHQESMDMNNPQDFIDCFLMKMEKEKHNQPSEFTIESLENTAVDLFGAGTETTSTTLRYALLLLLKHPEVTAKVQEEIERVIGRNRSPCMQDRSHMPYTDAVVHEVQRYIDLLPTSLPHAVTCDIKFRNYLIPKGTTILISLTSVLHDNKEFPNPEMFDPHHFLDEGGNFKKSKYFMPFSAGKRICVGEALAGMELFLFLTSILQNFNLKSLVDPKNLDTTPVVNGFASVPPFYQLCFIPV
T1 sequence (P33261 whole entry): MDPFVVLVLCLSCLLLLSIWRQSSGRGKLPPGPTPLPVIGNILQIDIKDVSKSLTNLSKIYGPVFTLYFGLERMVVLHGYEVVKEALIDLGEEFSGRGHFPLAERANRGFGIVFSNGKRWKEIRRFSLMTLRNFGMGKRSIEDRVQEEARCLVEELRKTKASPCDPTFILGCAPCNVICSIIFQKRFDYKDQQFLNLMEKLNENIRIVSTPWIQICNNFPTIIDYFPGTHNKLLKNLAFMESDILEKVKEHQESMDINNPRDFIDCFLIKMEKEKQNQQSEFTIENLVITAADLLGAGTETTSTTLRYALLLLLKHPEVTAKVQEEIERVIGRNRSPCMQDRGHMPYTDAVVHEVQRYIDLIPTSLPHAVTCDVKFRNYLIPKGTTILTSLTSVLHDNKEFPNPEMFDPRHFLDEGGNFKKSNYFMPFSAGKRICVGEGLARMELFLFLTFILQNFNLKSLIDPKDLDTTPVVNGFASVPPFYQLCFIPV

As to `C#CCOc1ccc(CCNC(=O)C(OCC#C)c2ccc(Cl)cc2)cc1OC` (stereo not shown) [MDP, mandipropamid], the Relative triglyceride accumulation in the data set on HepaRG cells (5.00 mg/L, 72 h) turned out to be 1.2; with HepaRG cells (6.00 mg/L, 72 h) it was 1.1; in the data set with HepaRG cells (8.00 mg/L, 72 h), 1.3; in the data set with HepaRG cells (10.0 mg/L, 72 h), 1.3; in the data set with HepaRG cells (12.0 mg/L, 72 h), 1.2; in the data set with HepaRG cells (15.0 mg/L, 72 h) it was 1.6. Moreover, the Relative triglyceride accumulation with HepaRG cells (19.0 mg/L, 72 h) amounted to 1.8. Moreover, the “EC1.5-fold (effective concentration at 1.5 relative triglyceride induction fold)” value with HepaRG cells (HepaRG cells, 72-h incubation) amounted to 14.4 mg/L. The EC1.5-fold result with HepaRG cells (HepaRG cells, 72 h) is “≈ 35 µM”. The IC50 on CYP2C19 was 0.824 µM; on CYP1A2, 28.7 µM; at CYP3A4 it was 1.32 µM; at CYP2C9, 1.18 µM; on CYP2D6 it was 18.1 µM. Besides, at CYP2C19, the “IC50 CYP2C19” value is 0.340 µg/mL. Besides, the “IC50 CYP1A2” value on CYP1A2 was found to be 11.8 µg/mL. Besides, the “IC50 CYP3A4” value on CYP3A4 is 0.544 µg/mL. The “IC50 CYP2C9” value at CYP2C9 is 0.488 µg/mL. The “IC50 CYP2D6” value at CYP2D6 worked out at 7.47 µg/mL.

One may read the IC50 as the concentration that gives 50% inhibition.
